Source: PubChem BioAssay (NCI)
Where “and” joins values, the source holds several entries; their conditions need not be identical. Equal values may be shown once.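 Assay format: 96-well plates, 48-hour exposure. At the GI50, growth is halved. Definition used: TGI = concentration required for complete inhibition of growth.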

Legend:
Assay in all cases: NCI-60 cell line screen, 48 h
[1] = test system: CCRF-CEM leukemia
[2] = test system: DU-145 prostate
[3] = test system: NCI-H226 lung
[4] = test system: NCI-H23 lung
[5] = test system: SF-268 CNS
[6] = test system: SF-295 CNS
[7] = test system: SK-MEL-2 melanoma
[8] = test system: SR leukemia
[9] = test system: UO-31 renal
[10] = test system: A498 renal

Row | Structure (SMILES) | TGI [1] | TGI [2] [µM] | TGI [3] | TGI [4] | TGI [5] | TGI [6] | TGI [7] [µM] | TGI [8] [µM] | TGI [9] | TGI [10] | GI50 [4] | GI50 [10] [µM] | GI50 [1] [µM] | GI50 [2] [µM] | GI50 [3] [µM] | GI50 [5] [µM] | GI50 [6] [µM] | GI50 [7] [µM] | GI50 [8] [µM] | GI50 [9] [µM]
1 | NCCCCNOCCCN | > 100 µM | > 100 | > 100 µM | > 100 µM | > 100 µM | > 100 µM | > 100 | > 100 | > 100 µM | – | – | – | – | – | – | – | – | – | – | –
2 | C/C=C(/CCC1NCCc2c1[nH]c1ccccc21)[Si](C)(C)C (stereo not given) | > 100 µM and 11.5 µM | – | > 100 µM and 31.4 µM | > 100 µM and 25.5 µM | > 100 µM and 29 µM | > 100 µM and 19.2 µM | – | – | > 100 µM and 17.3 µM | 72 µM and 23.5 µM | 87.1 µM and 11.1 µM | – | – | – | – | – | – | – | – | –
3 | C=CCN1C(=O)NC(=O)/C(=C/c2c3ccccc3cc3ccccc23)C1=O | > 100 µM | – | 45.9 µM | > 10 µM | 60.8 µM | 38.3 µM | 38.7 | 74 | 37 µM | – | – | – | – | – | – | – | – | – | – | –
4 | O=c1[nH]c2ccccc2c2oc3ccccc3c12 | > 100 µM | > 100 | > 100 µM | > 100 µM | > 100 µM | > 100 µM | – | > 100 | > 100 µM | > 100 µM | – | – | – | – | – | – | – | – | – | –
5 | O=S1(=O)C(=C(c2ccccc2)c2ccccc2)S(=O)(=O)c2ccccc21 | > 100 µM | – | > 100 µM | > 100 µM | > 100 µM | > 66.4 µM | > 100 | – | > 100 µM | > 100 µM | – | – | – | – | – | – | – | – | – | –
6 | O=c1c(-c2ccccc2)c(SCCCN2CCCCC2)n(-c2ccccc2)c(=S)n1-c1ccccc1 | 50.9 µM | 34.1 | 30.4 µM | 42.9 µM | – | 32.1 µM | 30.3 | 37.3 | – | 29 µM | – | – | – | – | – | – | – | – | – | –
7 | COC(=O)C(C)NP(=O)(OCc1cccc(Cn2cnc3c(N)ncnc32)c1)Oc1ccccc1 (stereo not given) | > 100 µM | > 100 | > 100 µM | > 100 µM | > 100 µM | > 100 µM | > 100 | > 100 | > 100 µM | > 100 µM | 66 µM | > 100 | 50.5 | > 100 | > 100 | 58.4 | > 100 | > 100 | 55.4 | > 100
8 | O=c1c2ccccc2nc2n1CCc1c-2[nH]c2ccccc12 | > 100 µM | 33.5 | – | 37.4 µM | 75.2 µM | 27 µM | – | > 100 | 28.1 µM | – | – | – | 18.9 | – | – | – | – | – | – | –
9 | CCOC(=O)c1c(Cl)c2c(n1Cc1ccccc1)-c1oncc1CCC2 | > 100 µM | > 100 | > 100 µM | – | > 100 µM | > 100 µM | – | 8.24 | – | > 100 µM | – | 4.38 | 2.21 | > 100 | > 100 | > 100 | > 100 | – | 1.8 | –
10 | COC(=O)C1=C(O)C(C(=O)OC)[C@@]2(O)[C@@H](C(=O)OC)[C@H](C)C[C@@H]1[C@@H]2C(=O)OC (stereo not given in full) | > 100 µM | 50.5 | > 100 µM | > 100 µM | – | – | 58.9 | > 100 | 67.6 µM | 44.3 µM | – | – | – | – | – | – | – | – | – | –
11 | CC(C)(CCCCC(C)(C)NC1=NCCO1)NC1=NCCO1 | > 10 µM | > 10 | > 10 µM | > 10 µM | > 10 µM | > 10 µM | > 10 | > 10 | > 10 µM | > 10 µM | – | – | – | – | – | – | – | – | – | –
